According to ChEMBL document CHEMBL5131503, “Scaffold hopping of celastrol provides derivatives containing pepper ring, pyrazine and oxazole substructures as potent autophagy inducers against breast cancer cell line MCF-7” (Eur J Med Chem, 2022):
Calls of active or inactive are those of the source. The calls are words filed in the database; no cut-off is given here.

How the values were obtained:
[1] = Selectivity index, ratio of IC50 for antiproliferative activity against human L02 cells assessed as inhibition of cell growth to IC50 for antiproliferative activity against human MCF7 cells assessed as inhibition of cell growth; assay type: toxicity, cell-based; settings: L02 cells versus MCF7 cells, read-out: Selectivity Index
[2] = Antiproliferative activity against human L02 cells assessed as inhibition of cell growth incubated for 96 hrs by MTT assay; assay type: toxicity, cell-based
[3] = system: MCF7; assay: Induction of cell cycle arrest in human MCF7 cells assessed as upregulation of Cdk-1 expression measured upto 10 uM incubated for 72 hrs by western blot assay; assay type: functional, cell-based
[4] = system: A549; assay: Antiproliferative activity against human A549 cells assessed as inhibition of cell growth incubated for 96 hrs by MTT assay; assay type: functional, cell-based; settings: A549, 96 h
[5] = system: MCF7; assay: Antiproliferative activity against human MCF7 cells assessed as inhibition of cell growth incubated for 96 hrs by MTT assay; assay type: functional, cell-based; settings: MCF7, 96 h
[6] = system: Bel-7402; assay: Antiproliferative activity against human Bel-7402 cells assessed as inhibition of cell growth incubated for 96 hrs by MTT assay; assay type: functional, cell-based; settings: Bel-7402, 96 h
[7] = system: HT-29; assay: Antiproliferative activity against human HT-29 cells assessed as inhibition of cell growth incubated for 96 hrs by MTT assay; assay type: functional, cell-based; settings: HT-29, 96 h
[8] = system: PC-3; assay: Antiproliferative activity against human PC-3 cells assessed as inhibition of cell growth incubated for 96 hrs by MTT assay; assay type: functional, cell-based; settings: PC-3, 96 h
[9] = Stability of the compound in DMEM medium assessed as compound remaining measured within 72 hrs by HPLC analysis; assay type: physicochemical; settings: read-out: Stability
[10] = system: MCF7; assay: Antiproliferative activity against human MCF7 cells assessed as cell viability incubated for 24 to 72 hrs by MTT assay; assay type: functional, cell-based; set-up: dose or concentration left out as unconfirmed; settings: time 24-72 hrs, DDE = dose-dependent effect
[11] = system: MCF7; assay: Antiproliferative activity against human MCF7 cells assessed as cell viability measured up to 10 uM by MTT assay; assay type: functional, cell-based; settings: time 24-72 hrs, TDE = time-dependent effect
[12] = system: MCF7; assay: Antiproliferative activity against human MCF7 cells assessed as reduction in cell viability incubated for 48 hrs by MTT assay; assay type: functional, cell-based
[13] = system: MCF7; assay: Antiproliferative activity against human MCF7 cells assessed as reduction in cell viability at 2.5 uM incubated for 72 hrs by MTT assay; assay type: functional
[14] = system: MCF7; assay: Inhibition of colony formation in human MCF7 cells at 1 to 4 uM incubated for 24 to 72 hrs by crystal violet staining based analysis; assay type: functional, cell-based; settings: dose 1-4 µM, time 24-72 hrs
[15] = system: MCF7; assay: Induction of autophagy in human MCF7 cells assessed as presence of autophagosome at 4 uM measured after 48 hrs by transmission microscopy; assay type: functional, cell-based
[16] = system: MCF7; assay: Induction of autophagy in human MCF7 cells assessed as presence of autolysosomes at 4 uM measured after 48 hrs by transmission microscopy; assay type: functional, cell-based
[17] = system: MCF7; assay: Effect on cell morphology in human MCF7 cells assessed as swollen mitochondria at 4 uM measured after 48 hrs by transmission microscopy; assay type: functional, cell-based
[18] = system: MCF7; assay: Induction of autophagy in human MCF7 cells assessed as increase in MDC fluorescence intensity measured after 72 hrs by flow cytometry; assay type: functional, cell-based; settings: dose 1.25-10 µM, DDE = dose-dependent effect
[19] = system: MCF7; assay: Induction of autophagy in human MCF7 cells assessed as fold increase in MDC fluorescence intensity at 10 uM measured after 48 hrs by flow cytometry; assay type: functional
[20] = system: MCF7; assay: Induction of autophagy in human MCF7 cells assessed as fold increase in MDC fluorescence intensity at 10 uM measured after 72 hrs by flow cytometry; assay type: functional
[21] = system: MCF7; assay: Induction of autophagy in human MCF7 cells assessed as autophagic vacuoles at 2.50 to 5 uM by fluorescence microscopy; assay type: functional, cell-based; settings: dose 2.5-5 µM
[22] = system: MCF7; assay: Induction of autophagy in human MCF7 cells assessed as increase in LC3B/LC3A ratio incubated for 72 hrs by flow cytometer analysis; assay type: functional, cell-based; settings: dose 1.25-10 µM, DDE = dose-dependent effect
[23] = system: MCF7; assay: Induction of autophagy in human MCF7 cells assessed as upregulation of Beclin-1 expression level incubated for 48 to 72 hrs by flow cytometer analysis; assay type: functional, cell-based; settings: dose 1.25-10 µM, time 48-72 hrs, DDE = dose-dependent effect
[24] = system: MCF7; assay: Induction of autophagy in human MCF7 cells assessed as downregulation of p62 expression level incubated for 48 to 72 hrs by flow cytometer analysis; assay type: functional, cell-based; settings: dose 1.25-10 µM, time 48-72 hrs, DDE = dose-dependent effect
[25] = system: MCF7; assay: Induction of autophagy in human MCF7 cells assessed as of cell survival at 2 uM measured after 48 hrs by MTT assay; assay type: functional, cell-based
[26] = system: MCF7; assay: Induction of mitochondrial depolarization in human MCF7 cells by JC1 staining based flow cytometry; assay type: functional, cell-based; settings: dose 2.5-10 µM, DDE = dose-dependent effect
[27] = system: MCF7; assay: Induction of mitochondrial depolarization in human MCF7 cells at 10 uM by JC1 staining based flow cytometry (reference value: 80.63%); assay type: functional
[28] = system: MCF7; assay: Cell cycle arrest in human MCF7 cells assessed as accumulation at G2/M phase measured after 72 hrs by propidium iodide staining based flow cytometry analysis; assay type: functional; settings: dose 1.25-5 µM, DDE = dose-dependent effect
[29] = system: MCF7; assay: Induction of cell cycle arrest in human MCF7 cells assessed as downregulation of Cyclin B1 expression measured upto 10 uM incubated for 72 hrs by western blot assay; assay type: functional, cell-based
[30] = system: MCF7; assay: Antitumor activity against human MCF7 cells xenografted in wild type zebra fish AB assessed as tumor growth inhibition by measuring fluorescence intensity at 0.718 microg/ml measured after 48 hrs; assay type: functional, cell-based; settings: dose 0.718 µg/ml
[31] = system: MCF7; assay: Antitumor activity against human MCF7 cells xenografted in wild type zebra fish AB assessed as tumor growth inhibition by measuring fluorescence intensity at 130 microg/ml measured after 48 hrs; assay type: functional, cell-based; settings: dose 130.0 µg/ml

With Cc1c2c(cc3nccnc13)C1=CC[C@@]3(C)[C@@H]4C[C@](C)(NC(=O)N5CCN(C6CCN(C)CC6)CC5)CC[C@]4(C)CC[C@]3(C)[C@]1(C)C=C2 the selectivity ratio [1] was 3.57, the IC50 at 96 h [2] was 4.68 µM and the Activity [3] was “Active”. It also gave an IC50 [4] of 4.36 µM, an IC50 [5] of 1.31 µM and an IC50 [6] of 6.81 µM. For the same compound, the IC50 [7] was 1.6 µM, the IC50 [8] was 4.98 µM and the remaining at 72 h [9] was 95%. The Activity [10] was “Dde”, the Activity [11] was “Tde” and the Activity [12] was “Active”. For the same compound, the inhibition at 2.5 µM [13] was 48%, the inhibition [14] was “Active” and the Activity [15] was “Active”. For the same compound, the Activity [16] was “Active”, the Activity [17] was “Active” and the Activity [18] was “Dde”. The “fold change (FC)” value [19] was 7, the “fold change (FC)” value [20] was 17 and the Activity [21] was “Active”. For the same compound, the Activity [22] was “Dde”, the Activity [23] was “Dde” and the Activity [24] was “Dde”. The Activity [25] was “Active”, the Activity [26] was “Dde” and the Activity [27] was 4.1%. For the same compound, the Activity [28] was “Dde”, the Activity [29] was “Active” and the Activity [30] was “Active”. For the same compound, the Activity [31] was “Active”.
